{"source": "patent US20260294885A1", "about": "“TREATMENT OF INFLAMMATORY CONDITIONS COMPRISING IMU-856” (IMMUNIC AG, priority 2023, published 2026)", "key": {"SIRT6": {"target": "SIRT6 (Homo sapiens, UniProt Q8N6T7)", "sequence (Q8N6T7 whole entry)": "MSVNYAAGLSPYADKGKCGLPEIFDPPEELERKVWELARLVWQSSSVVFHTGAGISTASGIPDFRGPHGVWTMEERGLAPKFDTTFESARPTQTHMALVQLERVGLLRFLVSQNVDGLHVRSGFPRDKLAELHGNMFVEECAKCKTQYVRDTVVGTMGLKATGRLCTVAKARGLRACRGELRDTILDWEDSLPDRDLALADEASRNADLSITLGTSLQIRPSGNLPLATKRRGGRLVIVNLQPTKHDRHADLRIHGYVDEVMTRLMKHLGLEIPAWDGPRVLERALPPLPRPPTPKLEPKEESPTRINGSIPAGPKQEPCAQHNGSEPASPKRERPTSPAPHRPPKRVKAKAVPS", "assay": "SIRT6 deacetylation of acetylated H3K56 in a cellular system", "format": "cell-based"}, "[1]": {"tested_on": "healthy subjects and patients with CelD", "assay": "Clinical safety, whole study", "format": "in vivo, human", "method": "(§1) In Part A, healthy subjects were randomised to single ascending doses of IMU-856 (10 mg to 160 mg) or placebo. In Part B healthy subjects were randomised to multiple once-daily doses of IMU-856 (40, 80, and 160 mg) or placebo for 14 days. Part C randomised patients with celiac disease who were on a gluten-free diet to multiple once-daily doses of IMU-856 (80 mg and 160 mg) or placebo for 28 days; a once-daily gluten challenge (6 g) was introduced on Day 14 and ended on Day 28. 71 healthy subjects were enrolled in Part A and B (N=19 placebo and N=52 IMU-856) and 43 patients with CelD in Part C (N=14 placebo; N=14 for 80 mg, and N=15 for 160 mg). In Parts A and B, treatment-emergent adverse events (TEAEs) occurred in 24 (73%) and 15 (79%) of subjects receiving any dose of IMU-856 compared to 6 (50%) and 5 (71%) with placebo, respectively. […] In Part C, the most common adverse events with any dose of IMU-856 by preferred term were headache (13 [45%]), nausea (9 [31%]), diarrhoea (8 [28%]), and abdominal distension (7 [24%]). […] In Part C, the mean change in villous height from baseline to Day 29 with 80 mg and 160 mg was −20.9±34.8 μm, and −22.5±51.1 μm, respectively, and −60.3±52.2 μm with placebo. […] Mean change in plasma citrulline increased with 80 mg and 160 mg from baseline to Day 14 (2.4±6.2 and 6.1±5.9 μmol/L, respectively) and from baseline to Day 29 (2.8±7.6 and 2.2±5.3 μmol/L, respectively), but not with placebo (−2.7±5.6 and −4.0±6.5 μmol/L). […] Mean increase in zinc levels from baseline to Day 29 with 80 mg and 160 mg were 0.3±1.4 and 0.9±2.1 μmol/L compared to a mean decrease in placebo (−0.9±2.1 μmol/L). Gluten-induced symptoms were also attenuated by IMU-856."}, "[2]": {"assay": "Pharmacokinetics in celiac disease patients, Part C", "format": "in vivo, human", "conditions": "for Cmax at 192 h / Tmax at 192 h / AUC(0-t) at 192 h: human, in vivo, Day 8, mean; for AUC(0-t) at 192 h: read-out: AUC0-t last", "method": "FIG. 1 illustrates the flow chart of part C in celiac disease (CelD) designed as proof-of-concept study with a gluten challenge trial. Part C was planned to include a well-controlled celiac disease patient population: The patients were 100% seronegative, indicating absence of ongoing substantial gluten exposure and was performed at sites in Australia and New Zealand. Part C was designed to assess safety, tolerability and pharmacokinetics of IMU-856 and measured also histologic changes, blood biomarkers, nutrient uptake and disease-related symptoms."}, "plasma citrulline": {"tested_on": "plasma citrulline", "assay": "Plasma citrulline, Part C", "format": "in vivo, human", "method": "as §1\nAlso, biomarker response upon treatment of CelD with IMU-856 was assessed. […] A wide inter-individual range of IL-2 response leads to large SD, especially in the placebo group. […]"}, "[3]": {"tested_on": "patients with celiac disease", "assay": "Patient-reported symptoms with gluten challenge (Celiac Disease Symptom Diary), Part C", "format": "in vivo, human", "set-up": "key to mean change in bloating / mean change in tiredness: change on 5-point severity scale (1=none to 5=very severe)", "conditions": "for mean change in abdominal pain (SD) / mean change in diarrhea (SD) / mean change in nausea (SD): last day before to first day of gluten challenge, CDSD 5-point scale", "text": "In an embodiment, the celiac disease patient is experiencing one or more symptoms as assessed by the CDSD Version 2.1® (ImmunogenX LLC) at the start of treatment with IMU-856 or a pharmaceutically acceptable salt or a solvate thereof. The CDSD questionnaire was developed to assess symptom severity in clinical trials in subjects with celiac disease. The CDSD includes five symptoms (diarrhea, abdominal pain, bloating, nausea, tiredness) asking participants about the severity of celiac disease symptoms they experience each day. Subjects rate their symptom severity on a 5-point scale (1=none, 2=mild, 3=moderate, 4=severe, 5=very severe). In various embodiments, the celiac disease patient is experiencing one or more significant or severe symptomatic days (based on CDSD) at the start of treatment with IMU-856 or a pharmaceutically acceptable salt or a solvate thereof.\nImprovement in clinical symptoms of gluten exposure: On the first day of gluten challenge, the placebo group (N=12) experienced a marked average increase in symptoms, as assessed by the Celiac Disease Symptom Diary using a 5-point scale of 0.8 for nausea, 0.8 for abdominal pain, and 0.8 diarrhea. In contrast, among the pooled IMU-856 arms (N=26), these average increases were only 0.4 for nausea, 0.5 for abdominal pain and 0.6 for diarrhea."}, "IL-2": {"tested_on": "IL-2", "assay": "Serum IL-2 release on gluten challenge, Part C", "format": "in vivo, human", "conditions": "first day of gluten challenge (Day 14)", "method": "Also, biomarker response upon treatment of CelD with IMU-856 was assessed. […] A wide inter-individual range of IL-2 response leads to large SD, especially in the placebo group. The inter-individual variance regarding IL-2 response decreases with increasing dose levels as illustrated in FIG. 8 (N=39/43 included in IL-2 analysis set. 3 patients not included in this analysis due to early termination and 1 incomplete IL-2 sampling due to site error. Methods used for IL-2 analysis: Milliplex® Human High Sensitivity T Cell Magnetic Bead Panel, 3 plex (Luminex®) and Simoa® CorPlex™ Human IL-2 Kit (Quanterix)).\nFIG. 8 illustrates the mean absolute change and maximum change in serum IL-2 (in pg/mL) from pre-gluten to 4 hours post-gluten on first day of gluten challenge (IL: interleukin; SD: standard deviation)."}, "[4]": {"conditions": "160 mg (N 11), Day 14 to Day 29"}, "[5]": {"conditions": "160 mg (N 13), Day 13 to Day 14"}, "[6]": {"conditions": "All Active (N 20), Day 14 to Day 29"}, "[7]": {"conditions": "All Active (N 26), Day 13 to Day 14"}, "[8]": {"conditions": "continued treatment during gluten challenge"}}, "note": "Entries after “also recorded” stand apart in the source; their conditions may differ. Where two headings read alike, the source gives them in different places.", "data": [{"smiles": "Cn1c(COc2cc(C(F)(F)F)ccn2)nnc1[C@H]1CC[C@H](c2cnn([C@H]3CC[C@H](N4CC5(CCO5)C4)CC3)c2)CC1", "note": "[IMU-856, 6-(trans-4-(4-(trans-4-(4-methyl-5-(((4-(trifluoromethyl)pyridin-2-yl)oxy)methyl)-4H-1,2,4-triazol-3-yl)cyclohexyl)-1H-pyrazol-1-yl)cyclohexyl)-1-oxa-6-azaspiro[3.3]heptane]", "values": [{"measurement": "deacetylation of H3K56", "setting": "SIRT6", "value": "prevents the deacetylation"}, {"measurement": "IMP-related serious or treatment-emergent adverse events", "setting": "[1]; human, in vivo", "value": "no investigational medicinal product (IMP)-related serious or treatment-emergent adverse events"}, {"measurement": "dose-dependency in adverse events", "setting": "[1]; human, in vivo", "value": "nor was there any dose-dependency in adverse events"}, {"measurement": "rates of TEAEs in non-disease related parameters versus placebo", "setting": "[1]; human, in vivo", "value": "comparable between the active treatment groups and placebo"}, {"measurement": "safety and tolerability", "setting": "[1]; human, in vivo", "value": "safe and well-tolerated"}, {"measurement": "dose-limiting toxicities, systematic safety laboratory changes or deaths", "setting": "[1]; whole study", "value": "No dose-limiting toxicities, systematic safety laboratory changes or deaths"}, {"measurement": "relation of serious adverse events to IMU-856", "setting": "[1]; whole study", "value": "unrelated to IMU-856"}, {"measurement": "serious adverse events", "setting": "[1]; whole study", "value": "Two"}, {"measurement": "achievement of steady state", "setting": "[2]; Part C", "value": "fast achievement of steady state"}, {"measurement": "dose linearity of plasma Cmax and AUC", "setting": "[2]; Part C", "value": "linear pharmacokinetics with dose-proportional increase"}, {"measurement": "mean trough levels / exposure over dosing period", "setting": "[2]; Part C", "value": "constant exposure within the whole dosing period"}, {"measurement": "Cmax at 192 h", "setting": "[2]; IMU-856 80 mg", "value": 0.354, "unit": "µg/mL"}, {"measurement": "Tmax at 192 h", "setting": "[2]; IMU-856 80 mg", "value": 1.9, "unit": "h"}, {"measurement": "AUC(0-t) at 192 h", "setting": "[2]; IMU-856 80 mg", "value": 1.57, "unit": "µg·h/mL"}, {"measurement": "Cmax at 192 h", "setting": "[2]; IMU-856 160 mg", "value": 0.766, "unit": "µg/mL"}, {"measurement": "Tmax at 192 h", "setting": "[2]; IMU-856 160 mg", "value": 1.5, "unit": "h"}, {"measurement": "AUC(0-t) at 192 h", "setting": "[2]; IMU-856 160 mg", "value": 3.61, "unit": "µg·h/mL"}, {"measurement": "mean change in plasma citrulline", "setting": "plasma citrulline; 80 mg, baseline to Day 14", "value": "2.4 ± 6.2", "unit": "µmol/L"}, {"measurement": "mean change in plasma citrulline", "setting": "plasma citrulline; 160 mg, baseline to Day 29", "value": "2.2 ± 5.3", "unit": "µmol/L"}, {"measurement": "citrulline levels", "setting": "plasma citrulline; in words", "value": "increased citrulline levels dose proportionally; also recorded: increased in both active treatment arms"}, {"measurement": "mean change in bloating", "setting": "[3]; 80 mg (N 9), Day 14 to Day 29", "value": "−0.4"}, {"measurement": "mean change in tiredness", "setting": "[3]; 80 mg (N 9), Day 14 to Day 29", "value": "−0.1"}, {"measurement": "mean change in bloating", "setting": "[3]; 80 mg (N 13), Day 13 to Day 14", "value": 0.3}, {"measurement": "mean change in tiredness", "setting": "[3]; 80 mg (N 13), Day 13 to Day 14", "value": 0.2}, {"measurement": "mean change in abdominal pain (SD)", "setting": "[3]; 80 mg (N = 13)", "value": "0.5 (0.78)"}, {"measurement": "mean change in diarrhea (SD)", "setting": "[3]; 80 mg (N = 13)", "value": "0.5 (0.97)"}, {"measurement": "mean change in nausea (SD)", "setting": "[3]; 80 mg (N = 13)", "value": "0.2 (0.69)"}, {"measurement": "mean change in bloating", "setting": "[3]; [4]", "value": "−0.5"}, {"measurement": "mean change in tiredness", "setting": "[3]; [4]", "value": "−0.5"}, {"measurement": "mean change in bloating", "setting": "[3]; [5]", "value": 0.5}, {"measurement": "mean change in tiredness", "setting": "[3]; [5]", "value": 0.5}, {"measurement": "mean change in abdominal pain (SD)", "setting": "[3]; 160 mg (N = 13)", "value": "0.4 (0.87)"}, {"measurement": "mean change in diarrhea (SD)", "setting": "[3]; 160 mg (N = 13)", "value": "0.6 (1.12)"}, {"measurement": "mean change in nausea (SD)", "setting": "[3]; 160 mg (N = 13)", "value": "0.7 (1.03)"}, {"measurement": "mean change in bloating", "setting": "[3]; [6]", "value": "−0.5"}, {"measurement": "mean change in tiredness", "setting": "[3]; [6]", "value": "−0.3"}, {"measurement": "mean change in bloating", "setting": "[3]; [7]", "value": 0.4}, {"measurement": "mean change in tiredness", "setting": "[3]; [7]", "value": 0.3}, {"measurement": "gluten-induced symptoms", "setting": "[3]; Part C", "value": "attenuated"}, {"measurement": "symptoms (nausea, abdominal pain or diarrhea)", "setting": "[3]; after first day of gluten challenge (Day 14), versus placebo", "value": "fewer symptoms"}, {"measurement": "patient-reported ability to perform daily activities", "setting": "[3]; [8]", "value": "improvement"}, {"measurement": "recovery from bloating symptoms", "setting": "[3]; [8]", "value": "recover to a higher extent; also recorded: improvement"}, {"measurement": "recovery from tiredness symptoms", "setting": "[3]; [8]", "value": "recover to a higher extent; also recorded: improvement"}, {"measurement": "protection against acute gluten-induced symptoms", "setting": "[3]; first day of gluten challenge", "value": "initial signal of protection against acute gluten-induced symptoms"}, {"measurement": "protection against chronic gluten-induced symptoms", "setting": "[3]; human, in vivo", "value": "initial signal of protection against chronic gluten-induced symptoms"}, {"measurement": "gluten-induced acute immune response, IL-2 release", "setting": "IL-2", "value": "dampens gluten-induced acute immune response, as measured by IL-2 release, in a dose-dependent fashion; also recorded: dose-dependent lessening of acute immune response"}]}]}
